# Assay results from ChEMBL document CHEMBL1268840, “Design, synthesis and structure-activity relationship of novel quinoxalin-2-carboxamides as 5-HT3 receptor antagonists for the management of depression” (Bioorg Med Chem Lett, 2010).
# Experiments:
# Mus musculus [1] = assay: Antidepressant-like activity in mouse assessed as immobility time at 2 mg/kg, ip by forced swimming test; type: functional; details: route intraperitoneal
# [2] = biological target: T1, 5-hydroxytryptamine receptor 3A (Cavia porcellus, UniProt O70212); assay: Antagonist activity at 5HT3 receptor in guinea pig ileum longitudinal muscle myenteric plexus assessed as inhibition of 2-methyl-5-HT-induced contraction; type: functional, tissue-based; details: read-out: pA2 (converted)
# T1 sequence (O70212 whole entry): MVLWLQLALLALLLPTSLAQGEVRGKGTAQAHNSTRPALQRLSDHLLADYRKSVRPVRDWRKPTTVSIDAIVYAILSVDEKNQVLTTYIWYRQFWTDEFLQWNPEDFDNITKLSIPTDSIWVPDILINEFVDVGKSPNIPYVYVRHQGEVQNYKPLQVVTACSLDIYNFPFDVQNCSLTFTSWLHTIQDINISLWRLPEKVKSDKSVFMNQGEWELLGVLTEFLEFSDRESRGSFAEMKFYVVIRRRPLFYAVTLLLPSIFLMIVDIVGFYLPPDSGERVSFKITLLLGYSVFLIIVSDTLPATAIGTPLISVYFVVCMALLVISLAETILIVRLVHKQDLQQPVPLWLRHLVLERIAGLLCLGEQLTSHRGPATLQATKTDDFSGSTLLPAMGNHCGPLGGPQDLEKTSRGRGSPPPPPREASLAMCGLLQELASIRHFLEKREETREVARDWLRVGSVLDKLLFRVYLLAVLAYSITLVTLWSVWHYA
# Mus musculus [3] = assay: Antidepressant-like activity in mouse assessed as immobility time at 0.5 mg/kg, ip by forced swimming test; type: functional; details: route intraperitoneal
# Mus musculus [4] = assay: Antidepressant-like activity in mouse assessed as immobility time at 1 mg/kg, ip by forced swimming test; type: functional; details: route intraperitoneal
# Mus musculus [5] = assay: Toxicity in mouse assessed as induction of spontaneous locomotor activity at 0.5 mg/kg, ip after 10 mins by actophotometry; type: organism-based; set-up: dose 0.5 mg/kg, route intraperitoneal; details: in vivo
# Mus musculus [6] = assay: Toxicity in mouse assessed as induction of spontaneous locomotor activity at 1 mg/kg, ip after 10 mins by actophotometry; type: organism-based; set-up: dose 1 mg/kg, route intraperitoneal; details: in vivo
# Mus musculus [7] = assay: Toxicity in mouse assessed as induction of spontaneous locomotor activity at 2 mg/kg, ip after 10 mins by actophotometry; type: organism-based; set-up: dose 2 mg/kg, route intraperitoneal; details: in vivo
Kb [2],Structure (SMILES),Time (Mus musculus [1]),Time (Mus musculus [3]),Time (Mus musculus [4]),Activity (Mus musculus [5]),Activity (Mus musculus [6]),Activity (Mus musculus [7])
6.31 µM,Cc1ccc(NC(=O)c2cnc3ccccc3n2)cc1,97.23 s,140 s,105 s,Non-toxic,Non-toxic,Non-toxic
2 µM,O=C(NCc1ccccc1)c1cnc2ccccc2n1,,,133 s,Non-toxic,Non-toxic,Non-toxic
1.58 µM,O=C(NNc1ccccc1)c1cnc2ccccc2n1,121 s,126 s,95.4 s,Non-toxic,Non-toxic,Non-toxic
1.58 µM,O=C(Nc1cccc(Cl)c1)c1cnc2ccccc2n1,,,151.2 s,Non-toxic,Non-toxic,Non-toxic
0.2 µM,CCCNC(=O)c1cnc2ccccc2n1,125 s,148 s,92.33 s,Non-toxic,Non-toxic,Non-toxic
0.0501 µM,CCCCNC(=O)c1cnc2ccccc2n1,103 s,121 s,97.5 s,Non-toxic,Non-toxic,Non-toxic
0.398 µM,O=C(c1cnc2ccccc2n1)N1CCCC1,,,139 s,Non-toxic,Non-toxic,Non-toxic
0.316 µM,O=C(NC1CCCC1)c1cnc2ccccc2n1,120 s,125 s,94.25 s,Non-toxic,Non-toxic,Non-toxic
1 µM,O=C(NC1CCCCC1)c1cnc2ccccc2n1,99 s,119 s,92.85 s,Non-toxic,Non-toxic,Non-toxic
0.158 µM,O=C(Nc1ccccc1)c1cnc2ccccc2n1,,,141 s,Non-toxic,Non-toxic,Non-toxic
10 µM,COc1ccc(NC(=O)c2cnc3ccccc3n2)cc1,,,143.5 s,Non-toxic,Non-toxic,Non-toxic
0.794 µM,CC(=O)c1cccc(NC(=O)c2cnc3ccccc3n2)c1,,,132.4 s,Non-toxic,Non-toxic,Non-toxic
10 µM,O=C(Nc1ccc([N+](=O)[O-])cc1)c1cnc2ccccc2n1,108 s,142 s,106.32 s,Non-toxic,Non-toxic,Non-toxic
0.0251 µM,Cc1c(Cl)cccc1NC(=O)c1cnc2ccccc2n1,147 s,120 s,95.42 s,Non-toxic,Non-toxic,Non-toxic
31.6 µM,O=C(Nc1nc2ccccc2s1)c1cnc2ccccc2n1,,,115.1 s,Non-toxic,Non-toxic,Non-toxic
12.6 µM,O=C(Nc1ccc(NC(=O)c2cnc3ccccc3n2)cc1)c1ccccc1,,,125 s,Non-toxic,Non-toxic,Non-toxic
100 µM,O=C(Nc1ccccc1NC(=O)c1cnc2ccccc2n1)c1ccccc1,,,121 s,Non-toxic,Non-toxic,Non-toxic
0.126 µM,Cc1nccn1CC1CCc2c(c3ccccc3n2C)C1=O (stereo not drawn) [ONDANSETRON],95.1 s,130.2 s,100.4 s,Non-toxic,Non-toxic,Non-toxic
